Data on one molecule can be found in patent publication US20050227300A1, “Use of alpha-tubulin acetylation levels as a biomarker for protein deacetylase inhibitors” (priority 2001, published 2005).

One assay has as its system HCT 166 cells. Kind of assay: 2-D gel electrophoresis / western blotting with anti-acetyllysine of extracts of HDAC-2 treated cells. The assay is classed as cell-based, human. The following applies: HDAC-2 treated vs control, IEF pH 3-10. (In general: In western blotting, separated proteins are transferred to a membrane and probed.)
Assay [1] relates to alpha-tubulin acetylation. Kind of assay: Time course of HDAC-2 induced tubulin acetylation in cell lines. The assay is classed as cell-based. The following applies: 200 nM. An excerpt: Time Course of HDAC-2 Induced Tubulin Acetylation in Cell Lines
The test system of assay [2] is Tubulin Acetylation in HCT 116 Tumor Xenografts. Description: Tubulin acetylation in HCT 116 tumor xenografts in mice (western blotting with anti-acetylated alpha-tubulin antibody). It is filed as in vivo. As for the experimental part:
In order to correlate the antitumor activity of HDAC-2 with its induction of tubulin acetylation, levels of acetylated tubulin are examined in tumors of athymic mice bearing HCT 116 treated with HDAC-2 and control mice. Mice are dosed with 100 mg/kg of HDAC-2 and the tumors are dissected 3, 6, 16 or 24 h post dose. Tubulin acetylation levels are detected with antibodies specific for acetylated alpha-tubulin. […] Tumors are dissected 1 hour post dose and levels of acetylated tubulin determined by western blotting with the anti-acetylated alpha-tubulin antibody.

Where [3] appears, read: athymic mice bearing HCT 116, 100 mg/kg, intravenous.

SMILES strings stand for the structures.

Text for HCT 166 cells: For Identifying the protein, cell extracts of HDAC-2 treated and control HCT 166 cells are separated by 2-D gel electrophoresis with a broad range IEF gel (pH 3-10) in the first dimension and analyzed by western blotting with anti-acetyllysine.
One set of gels is used for immunoblotting with anti-acetyllysine antibody detection and a second set is reserved for staining of the gel with Coomassie blue.

Take `O=C(/C=C/c1ccc(CN(CCO)CCc2c[nH]c3ccccc23)cc1)NO` [HDAC-2, N-hydroxy-3-[4-[[(2-hydroxyethyl)[2-(1H-indol-3-yl)ethyl]-amino]methyl]phenyl]-2E-2-propenamide]: the “anti-acetyllysine immunostaining of cell extracts (histone bands and non-histone spot around pH 4.5, later identified as acetylated alpha-tubulin)” value in the assay with HCT 166 cells is on record as “prominently stained bands of low molecular weight corresponding to histones are visible at the lower right corner as well as a non-histone spot around pH 4.5”. The “time of maximal alpha-tubulin acetylation” value in assay [1] was found to be 4 h. The “acetylation of alpha-tubulin reached, relative to the maximal acetylation (at 4 hours)” value in assay [1] (30 min after addition) is reported as “more than 30%”. The “state of cells at last time point” value in assay [1] (18 hours) was “cells are visibly damaged”. Besides, in assay [2] (HCT 116 tumor bearing mice, i.v. dose as low as 2 mg/kg, 1 hour post dose), the “induction of tubulin acetylation in the tumors” value is “able to induce tubulin acetylation”. Moreover, in assay [2] (setting [3]), the “Proliferating Cell Nuclear Antigen (PCNA) levels in tumors” value is “essentially invariant”, the “duration of increase in acetylated alpha-tubulin in tumors” value is given as “at least 8 h” and the “time to consistent increases in acetylated alpha-tubulin in tumors” value was ≤ 30 min.
